Article PMC7381729, “A new class of PentixaFor- and PentixaTher-based theranostic agents with enhanced CXCR4-targeting efficiency” (Theranostics, 2020)
Where a SMILES comes first, the peptide text is derived from it. Side-chain parts run from the residue outwards. [ ]: non-standard residue; d: D form. The star is where a group is joined. DOTA = O=C(O)CN1CCN(CC(=O)O)CCN(CC(=O)*)CCN(CC(=O)O)CC1; dTyr(3-I) = N[C@H](Cc1ccc(O)c(I)c1)C(=O)O; 2Nal = N[C@@H](Cc1ccc2ccccc2c1)C(=O)O; dNMeOrn = CN[C@H](CCCN)C(=O)O; 4Abz = Nc1ccc(C(=O)O)cc1

What was measured:
[1] = test system: Daudi (human B-cell lymphoma) xenograft bearing CB-17 SCID mice; test: Biodistribution in Daudi xenograft bearing mice; type: in vivo, mouse; conditions: 1h p.i., tracer only, i.v.; γ-counter; means ± SD, n=4-5 (68Ga: n=4)
Experimental: The biodistribution of selected compounds was investigated in Daudi (human B-cell lymphoma) xenograft bearing female CB-17 SCID mice (6-8 weeks, Charles River, Sulzfeld, Germany), [29]. All animal experiments were performed in accordance with current animal welfare regulations in Germany (approval #55.2-1-54-2532-71-13).
Animals (n=4-5 per group) were injected intravenously with 5-10 MBq (0.08-0.11 nmol peptide per mouse) of the respective ^68Ga- and^ 177Lu-labeled CXCR4 ligands in PBS (100 µL) into the tail vein under isoflurane anesthesia. CXCR4-specificity of binding was determined by coinjection of 50 µg AMD3100 per mouse. The animals were sacrificed 1, 6 and 48h post injection (p.i.), and the organs of interest were dissected. The radioactivity was measured in weighted tissue samples using a γ-counter. Data are expressed in % ID/g tissue (mean ± SD).

[2] = Lipophilicity, modified shake-flask method; type: physicochemical; conditions: O/PBS, radiolabeled compound, means ± SD (n=6)
Experimental: The lipophilicity (log PO/PBS) of the ^68Ga- and ^177Lu-labeled compounds in this study was determined via a modified shake-flask method.

- Biodistribution adrenals [1]: 1.51 ± 0.18 %iD/g
- Biodistribution liver [1]: 5.66 ± 0.40 %iD/g
- Biodistribution lung [1]: 2.91 ± 0.28 %iD/g
- Biodistribution spleen [1]: 3.02 ± 0.46 %iD/g
- Biodistribution stomach [1]: 0.93 ± 0.15 %iD/g
- Biodistribution tumor (Daudi xenograft) [1]: 8.32 ± 1.30 %iD/g
- log PO/PBS [2]: -3.3 ± 0.02
Compound: C[C@@H](NC(=O)[C@@H](CCCNC(=N)N)NC(=O)CN1CCN(CC(=O)O)CCN(CC(=O)O)CCN(CC(=O)O)CC1)C(=O)Nc1ccc(C(=O)NCCC[C@@H]2C(=O)N[C@@H](CCCNC(=N)N)C(=O)N[C@@H](Cc3ccc4ccccc4c3)C(=O)NCC(=O)N[C@H](Cc3ccc(O)c(I)c3)C(=O)N2C)cc1 [[^68Ga]DOTA-r-a-ABA-iodoCPCR4] [metal not drawn] (cyclo([2Nal]G[dTyr(3-I)][dNMeOrn]([4Abz-dA-dR-DOTA])R))
